The text below walks through data of patent US20100297159A1, “THOMSEN-FRIEDENREICH DISACCHARIDE MODIFIED IMMUNOGEN (TFD), PREPARATION PROCEDURE, COMPOSITIONS COMPRISING IT, USES, AND TREATMENT METHODS” (CONSEJO NACIONAL DE INVESTIGACIONES CIETIFICAS Y TECNICAS …, priority 2007, published 2010).

In experiment [1] the test system is TFD-BSA antigen / IgG, IgM antibodies interaction. The experiment can be described thus: Competition ELISA, inhibition of antibody interaction with TFD-BSA antigen. The class given is binding, mice. The settings on record: for IC50: antisera from BzlαTFD-Lys5-KLHs immunization; for Inhibitory effect in the interaction of TFD-BSA/antigen T-IgG/IgM antibodies: competition ELISA, TFD-BSA and antigen T, in words. The method, then:
(§1) Target antigens (10 μg/ml) were adhered to multi-well plates of polystirene in saline phosphate buffer (PBS; 10 mM sodium phosphate, pH 7.2 and 150 mM NaCl) overnight at 4° C. Glycolipids were diluted in methanol and dried for 1 hour at 60° C. After covering the wells with the antigens, these were saturated with PBS-1% BSA-0.05% Tween 20 for 1 hour at 37° C. Serial dilutions of antiserum were incubates with the antigen for 2 hours at room temperature, and then washed 5 times with PBS. The adhered antigen-antibody complex was detected with a 1/1000 dilution of anti-IgG goat antibody or mouse IgM conjugated with peroxydase in PBS-0.05% Tween 20 (PBS-T), incubates at room temperature for 1 hour, and washed 5 times with PBS. Color reaction was developed as described for ELA.
(§2) The three antibodies showing highest anti-TFD and anti-antigen T levels were analyzed by competition ELISA, and results were averaged. Optimum antiserum dilutions with an optical density of 1.0 against TFD-BSA and T-MUC1 (10 μg/ml) as blanc antigen were determined in preliminary experiments. Competition ELISA stages were equal to those in ELISA, except in that optimal antiserum dilution was pre-incubated with several related antigens in carbohydrates for 1 hour at room temperature before being added to the wells. Minimum concentration of carbohydrates required for 50% inhibition (ID50) of antigen-antibody interaction is a more specific parameter.
On the technique in general: In an ELISA, binding on a coated surface is turned into a signal by an enzyme label.

The subject of experiment [2] is T-MUC1 antigen / IgG, IgM antibodies interaction. As to the kind of experiment: Competition ELISA, inhibition of antibody interaction with T-MUC1 antigen. The class given is binding, mice. Particulars: antisera from BzlαTFD-Lys5-KLHs immunization. The method, then:
as §1, §2

Experiment [3] concerns HT29 tumor cell / antibody interaction. As to the kind of experiment: Competition ELISA of cells, inhibition of antibody interaction with HT29 tumor cells. The class given is cell-based, human. Particulars: for Inhibitory effect relative to BzlαTFD, IgM mediated interaction: times less inhibitory effect than BzlαTFD; for Inhibitory effect, IgM mediated interaction: in words. On the procedure: Level of antibodies against epithelial tumor cells was determined using lines HT29, MCF7, and T47D. Tumor cells were cultured to sub-comfluence in media recommended by ATCC, and harvested by treatment with trypsin. They were adsorbed to multi-well plates, fixed with cold methanol for […] and saturated with PBS-T for 1 hour at room temperature. ELISA of cells was carried out by incubating serial dilutions of mouse sera against the different tumor lines for 2 hours at room temperature in PBS, and then was washed 4 times with PBS-T. The adhered antigen-antibody complex was detected with a 1/1000 dilution of anti-IgG goat antibody or mouse IgM conjugated to a peroxidase in PBS-T, incubated for 1 hour at room temperature, and washed […] PBS-T. Color reaction was developed as described for ELA. Steps for competition ELISA of cells were the same as for ELISA of cells, except in that the optimum anti-sera dilution was pre-incubated with several antigens related to carbohydrates for 1 hour at room temperature prior to the addition to the plate wells.

[4] abbreviates: IgG, read-out: Concentration required to produce 50% inhibition (IC50), TFD-BSA antigen, IgG.
[5] abbreviates: IgM, read-out: Concentration required to produce 50% inhibition (IC50), TFD-BSA antigen, IgM.
Setting [6] is: IgG, read-out: Concentration required to produce 50% inhibition (IC50), T-MUC1 antigen, IgG.
[7] abbreviates: IgM, read-out: Concentration required to produce 50% inhibition (IC50), T-MUC1 antigen, IgM.
Setting [8] is: HT29, IgM, read-out: Concentration requested to produce 50% inhibition (IC50), antibodies with HT29 tumor cell interaction, IgM.
Where [9] appears, read: Homo sapiens, HT-29, HT29, IgG, read-out: Concentration requested to produce 50% inhibition (IC50), antibodies with HT29 tumor cell interaction, IgG.
[10] abbreviates: HT29, IgG, read-out: Concentration requested to produce 50% inhibition (IC50), antibodies with HT29 tumor cell interaction, IgG.
The mark [11] stands for this setting: Homo sapiens, HT-29, HT29, IgM, read-out: Concentration requested to produce 50% inhibition (IC50), antibodies with HT29 tumor cell interaction, IgM.

Like-named read-outs stand apart in the source and are kept apart here.

With `CC(=O)NC1C(O)OC(CO)C(O)C1O` (centres unmarked) [GalNAc], the IC50 was 20 mM in experiment [1] (setting [4]); 30 mM in experiment [1] (setting [5]); greater than 100 mM in experiment [2] (setting [6]); greater than 100 mM in experiment [2] (setting [7]); 20 mM in experiment [3] (setting [8]); greater than 100 mM in experiment [3] (setting [9]). Besides, the “Inhibitory effect relative to BzlαTFD, IgM mediated interaction” value (from here on “Inhibitory effect relative to BzlαTFD”) in experiment [3] (HT29) turned out to be 10 times.

With `CC(=O)NC1C(O)OC(CO)C(O)C1O` (centres unmarked) [GlcNAc], the IC50 in experiment [1] (setting [4]), in experiment [1] (setting [5]), in experiment [2] (setting [6]), in experiment [2] (setting [7]), in experiment [3] (setting [10]) and in experiment [3] (setting [8]) was greater than 100 mM in each case. In addition, the “Inhibitory effect in the interaction of TFD-BSA/antigen T-IgG/IgM antibodies” value in experiment [1] was “did not show any effect”. For the same molecule, the “Inhibitory effect, IgM mediated interaction” value in experiment [3] (HT29) is on record as “did not show inhibitory effect”.

`OCC1OC(O)C(O)C(O)C1O` (centres unmarked) [Glc]: the IC50 in experiment [1] (setting [4]), in experiment [1] (setting [5]), in experiment [2] (setting [6]), in experiment [2] (setting [7]), in experiment [3] (setting [9]) and in experiment [3] (setting [11]) was greater than 100 mM in each case. Further, the “Inhibitory effect in the interaction of TFD-BSA/antigen T-IgG/IgM antibodies” value in experiment [1] is reported as “did not show any effect”.

Take `OCC1OC(O)C(O)C(O)C1O` (centres unmarked) [Gal]: the “Inhibitory effect, IgM mediated interaction” value in experiment [3] (HT29) is recorded as “did not show inhibitory effect”.

As to `CC(=O)N[C@@H]1[C@@H](O[C@@H]2O[C@H](CO)[C@H](O)[C@H](O)[C@H]2O)[C@@H](O)[C@@H](CO)O[C@@H]1O` [TFD, Galβ3GalNAcα], the IC50 in experiment [1] (setting [4]) was 10 mM; in experiment [1] (setting [5]), 3.5 mM; in experiment [2] (setting [6]), 20 mM; in experiment [2] (setting [7]), greater than 20 mM; in experiment [3] (setting [10]), greater than 10 mM; in experiment [3] (setting [8]) it was 8 mM. For the same molecule, in experiment [1], the “Inhibitory effect in the interaction of TFD-BSA/antigen T-IgG/IgM antibodies” value is on record as “significant inhibition”. Besides, the “Inhibitory effect relative to BzlαTFD” value in experiment [3] (HT29) is on record as 4 times.

As for `CC(=O)NC1C(OCc2ccccc2)OC(CO)C(O)C1O` (centres unmarked) [BzlαGalNAc], the IC50 in experiment [1] (setting [4]) was 5 mM; in experiment [1] (setting [5]) it was 1 mM; in experiment [2] (setting [6]), 20 mM; in experiment [2] (setting [7]) it was greater than 20 mM; in experiment [3] (setting [9]) it was 8 mM; in experiment [3] (setting [11]) it was 8 mM. For the same molecule, the “Inhibitory effect in the interaction of TFD-BSA/antigen T-IgG/IgM antibodies” value in experiment [1] is “significant inhibition”. In experiment [3] (HT29), the “Inhibitory effect relative to BzlαTFD” value stood at 4 times.

`CC(=O)N[C@H]1[C@@H](Oc2ccc([N+](=O)[O-])cc2)O[C@H](CO)[C@H](O)[C@@H]1O[C@@H]1O[C@H](CO)[C@H](O)[C@H](O)[C@H]1O` [pNPαTFD]: the IC50 was greater than 10 mM in experiment [3] (setting [10]) and 2 mM in experiment [3] (setting [8]). Moreover, the “Inhibitory effect, IgM mediated interaction” value in experiment [3] (HT29) is on record as “greatest inhibitors”.

Take `CC(=O)NC1C(OCc2ccccc2)OC(CO)C(O)C1OC1OC(CO)C(O)C(O)C1O` (centres unmarked) [BzlαTFD]: the IC50 in experiment [1] (setting [4]) was 2.5 mM; in experiment [1] (setting [5]) it was 0.1 mM; in experiment [2] (setting [6]), 10 mM; in experiment [2] (setting [7]) it was greater than 10 mM; in experiment [3] (setting [9]), 4 mM; in experiment [3] (setting [11]), 2 mM. For the same molecule, the “Inhibitory effect in the interaction of TFD-BSA/antigen T-IgG/IgM antibodies” value in experiment [1] is reported as “significant inhibition”. Besides, the “Inhibitory effect, IgM mediated interaction” value in experiment [3] (HT29) is recorded as “greatest inhibitors”.
